# Measured values reported in patent US11484561B2, “Morus extracts rich in N-acids of imino sugars and or pipecolic acids” (Phynova Limited, priority 2011, dated 2022).
# Key:
# [1] = tested on: N-acetyl-β-D-gluc (Bovine kidney); set-up: key: NI = no inhibition; settings: typical DNJ inhibitory activity shown for reference, in words; cited from earlier work
# [2] = tested on: naringinase (P. decumbens); assay: Glycosidase assay, naringinase (P. decumbens); format: biochemical; settings: Table 16; % inhibition; concentration not given
# Procedure: (§1) The assays used p-nitrophenyl-substrates and commercial enzymes purchased from Sigma-Aldrich. Enzymes were assayed at 27° C. in 0.1M citric acid/0.2M disodium hydrogen phosphate buffers at the optimum pH for the enzyme. The incubation mixture consisted of 10 μl enzyme solution, 10 μl of 10 mg/ml aqueous solution of extract and 50 μl of the appropriate 5 mM p-nitrophenyl substrate made up in buffer at the optimum pH for the enzyme. The reactions were stopped by addition of 70 μl 0.4M glycine (pH 10.4) during the exponential phase of the reaction, which had been determined at the beginning using uninhibited assays in which water replaced mulberry fractions. Final absorbances were read at 405 nm using a Versamax microplate reader (Molecular Devices). Assays were carried out in triplicate, and the values given are means of the three replicates per assay. Results are expressed as % inhibition.
# (§2) Substrates are 10 mM p-nitrophenyl-glycopyranosides. Enzymes are purchased from Sigma and run at the pH optima
# α-L-fucosidase (bovine) = target: T1, α-L-fucosidase (bovine) (Bos taurus, UniProt Q2KIM0); set-up: key: NI = no inhibition; settings: typical DNJ inhibitory activity shown for reference, in words; cited from earlier work
# T1 construct: purchased Sigma-Aldrich
# T1 sequence (Q2KIM0 23-468): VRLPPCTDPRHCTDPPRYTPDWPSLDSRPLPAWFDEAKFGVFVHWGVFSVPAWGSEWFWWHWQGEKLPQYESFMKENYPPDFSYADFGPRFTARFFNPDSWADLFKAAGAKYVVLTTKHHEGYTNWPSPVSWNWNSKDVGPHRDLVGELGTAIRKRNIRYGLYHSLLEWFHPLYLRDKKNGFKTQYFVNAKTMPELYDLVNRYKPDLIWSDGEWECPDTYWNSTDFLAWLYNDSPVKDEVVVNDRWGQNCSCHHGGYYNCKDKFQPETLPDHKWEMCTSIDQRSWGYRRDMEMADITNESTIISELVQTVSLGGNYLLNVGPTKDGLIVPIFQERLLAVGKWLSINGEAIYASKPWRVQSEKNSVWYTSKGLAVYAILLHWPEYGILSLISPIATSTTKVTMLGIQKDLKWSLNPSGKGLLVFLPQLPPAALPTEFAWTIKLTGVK
# [3] = target: T2, α-D-mannosidase (Jack bean) (Canavalia ensiformis, UniProt C0HJB3); assay: Glycosidase assay, α-D-mannosidase (Jack bean); format: biochemical; settings: Table 16; % inhibition; concentration not given
# T2 construct: purchased Sigma-Aldrich
# T2 sequence (C0HJB3 1-562 limits assumed): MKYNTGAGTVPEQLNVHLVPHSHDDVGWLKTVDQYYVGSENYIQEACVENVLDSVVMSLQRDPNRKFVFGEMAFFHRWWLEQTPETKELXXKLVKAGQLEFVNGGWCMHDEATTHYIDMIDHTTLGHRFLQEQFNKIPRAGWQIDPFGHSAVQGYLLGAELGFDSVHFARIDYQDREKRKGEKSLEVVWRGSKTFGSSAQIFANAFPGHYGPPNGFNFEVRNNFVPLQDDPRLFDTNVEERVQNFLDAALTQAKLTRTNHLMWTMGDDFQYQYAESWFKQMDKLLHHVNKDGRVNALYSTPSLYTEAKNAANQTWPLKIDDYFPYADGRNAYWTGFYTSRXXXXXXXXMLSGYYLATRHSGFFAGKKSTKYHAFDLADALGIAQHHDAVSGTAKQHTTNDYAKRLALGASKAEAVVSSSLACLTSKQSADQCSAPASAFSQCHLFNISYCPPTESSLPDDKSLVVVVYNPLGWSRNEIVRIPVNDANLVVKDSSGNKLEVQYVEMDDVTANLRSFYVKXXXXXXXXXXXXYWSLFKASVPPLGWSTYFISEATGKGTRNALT
# Procedure: as §1, with “The reactions were stopped by addition of 70 μl 0.4M glycine (pH 10.4) during the exponential phase of the reaction, which had been determined at the beginning using uninhibited assays in which water replaced mulberry fractions.” left out
# as §2
# [4] = target: T3, amyloglucosidase (A. niger) (Aspergillus niger, UniProt P69328); set-up: key: NI = no inhibition; settings: typical DNJ inhibitory activity shown for reference, in words; cited from earlier work
# T3 construct: purchased Sigma-Aldrich
# T3 sequence (P69328 25-640): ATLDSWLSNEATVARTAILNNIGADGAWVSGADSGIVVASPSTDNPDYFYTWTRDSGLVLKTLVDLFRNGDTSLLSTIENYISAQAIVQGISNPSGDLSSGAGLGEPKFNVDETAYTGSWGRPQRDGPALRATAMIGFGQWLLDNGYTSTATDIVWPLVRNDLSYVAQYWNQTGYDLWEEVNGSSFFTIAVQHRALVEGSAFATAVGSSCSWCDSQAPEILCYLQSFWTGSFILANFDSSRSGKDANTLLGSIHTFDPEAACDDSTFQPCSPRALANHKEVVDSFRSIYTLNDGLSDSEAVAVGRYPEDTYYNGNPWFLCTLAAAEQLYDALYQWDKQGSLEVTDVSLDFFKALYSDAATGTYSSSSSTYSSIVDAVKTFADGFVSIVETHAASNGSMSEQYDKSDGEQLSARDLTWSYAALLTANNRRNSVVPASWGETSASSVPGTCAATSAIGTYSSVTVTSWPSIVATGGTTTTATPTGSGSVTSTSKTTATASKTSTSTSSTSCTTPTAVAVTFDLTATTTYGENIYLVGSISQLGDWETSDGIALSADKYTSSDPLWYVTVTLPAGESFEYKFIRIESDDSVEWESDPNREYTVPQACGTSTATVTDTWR
# β-D-glucosidase (almond) = settings: typical DNJ inhibitory activity shown for reference, in words; cited from earlier work
# α-D-glucosidase (Yeast) = target: T4, α-D-glucosidase (Yeast) (Saccharomyces cerevisiae, UniProt P53341); assay: Glycosidase assay, α-D-glucosidase (Yeast); format: biochemical; settings: Table 16; % inhibition; concentration not given
# T4 construct: purchased Sigma-Aldrich
# T4 sequence (P53341 whole entry): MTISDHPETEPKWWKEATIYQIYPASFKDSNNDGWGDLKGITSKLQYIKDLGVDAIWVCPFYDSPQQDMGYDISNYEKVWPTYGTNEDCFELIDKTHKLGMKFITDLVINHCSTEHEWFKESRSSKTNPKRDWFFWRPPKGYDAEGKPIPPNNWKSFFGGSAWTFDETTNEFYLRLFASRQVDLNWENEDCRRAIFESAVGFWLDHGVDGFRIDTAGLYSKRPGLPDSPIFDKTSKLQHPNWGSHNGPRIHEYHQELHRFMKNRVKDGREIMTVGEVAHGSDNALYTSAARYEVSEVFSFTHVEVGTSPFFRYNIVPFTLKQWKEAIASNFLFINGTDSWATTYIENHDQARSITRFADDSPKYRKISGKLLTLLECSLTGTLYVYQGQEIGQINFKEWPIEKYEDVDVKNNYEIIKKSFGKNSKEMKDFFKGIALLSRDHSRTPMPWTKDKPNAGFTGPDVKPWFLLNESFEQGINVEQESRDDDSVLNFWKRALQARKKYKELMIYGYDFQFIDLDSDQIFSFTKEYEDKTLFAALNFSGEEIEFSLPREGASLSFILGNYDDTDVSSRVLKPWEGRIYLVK
# Procedure: as §1, §2
# [5] = target: T5, α-D-galactosidase (green coffee bean) (Coffea arabica, UniProt Q42656); assay: Glycosidase assay, α-D-galactosidase (green coffee bean); format: biochemical; settings: Table 16; % inhibition; concentration not given
# T5 construct: purchased Sigma-Aldrich
# T5 sequence (Q42656 16-378): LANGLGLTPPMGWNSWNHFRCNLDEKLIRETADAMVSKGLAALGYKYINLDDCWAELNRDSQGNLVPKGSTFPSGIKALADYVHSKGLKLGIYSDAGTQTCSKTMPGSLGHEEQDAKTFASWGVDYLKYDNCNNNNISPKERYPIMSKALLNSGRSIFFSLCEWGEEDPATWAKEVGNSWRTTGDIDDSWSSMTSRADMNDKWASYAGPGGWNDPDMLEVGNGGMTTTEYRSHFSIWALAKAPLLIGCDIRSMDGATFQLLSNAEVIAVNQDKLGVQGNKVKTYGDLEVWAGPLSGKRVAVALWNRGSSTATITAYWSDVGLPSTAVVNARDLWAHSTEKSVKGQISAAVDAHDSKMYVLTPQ
# Procedure: as §1, §2
# [6] = target: T3, amyloglucosidase (A. niger); assay: Glycosidase assay, amyloglucosidase (A. niger); format: biochemical; settings: Table 16; % inhibition; concentration not given
# Procedure: as §1, §2
# [7] = tested on: α-D-glucosidase (Bacillus); assay: Glycosidase assay, α-D-glucosidase (Bacillus); format: biochemical; settings: Table 16; % inhibition; concentration not given
# Procedure: as §1, §2
# [8] = target: T2, α-D-mannosidase (Jack bean); settings: typical DNJ inhibitory activity shown for reference, in words; cited from earlier work
# [9] = target: T6, human recombinant α-L-iduronidase (Homo sapiens, UniProt P35475); assay: α-L-iduronidase inhibition; format: biochemical
# T6 sequence (P35475 28-653): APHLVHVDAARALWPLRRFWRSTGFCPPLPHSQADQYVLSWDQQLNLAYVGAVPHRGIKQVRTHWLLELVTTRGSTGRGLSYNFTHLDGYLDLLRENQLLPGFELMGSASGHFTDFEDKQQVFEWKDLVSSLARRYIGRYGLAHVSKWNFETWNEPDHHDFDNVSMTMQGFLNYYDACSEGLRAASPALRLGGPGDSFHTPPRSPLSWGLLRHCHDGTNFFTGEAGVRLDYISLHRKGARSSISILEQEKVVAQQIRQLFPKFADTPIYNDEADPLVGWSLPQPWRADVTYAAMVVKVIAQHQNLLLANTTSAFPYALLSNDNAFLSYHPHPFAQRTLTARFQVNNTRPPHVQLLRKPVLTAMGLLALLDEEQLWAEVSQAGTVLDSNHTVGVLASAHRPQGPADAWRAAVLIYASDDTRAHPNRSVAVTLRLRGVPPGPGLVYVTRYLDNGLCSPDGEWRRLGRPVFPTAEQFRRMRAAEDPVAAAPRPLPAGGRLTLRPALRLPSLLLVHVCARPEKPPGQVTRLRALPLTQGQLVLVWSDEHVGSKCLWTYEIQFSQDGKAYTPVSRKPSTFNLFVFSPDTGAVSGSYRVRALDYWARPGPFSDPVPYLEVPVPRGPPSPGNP
Compound,"N-acetyl-β-D-gluc (Bovine kidney, typical DNJ inhibitory activity) [1]",Naringinase (P. decumbens) [2] [%],"α-L-fuc bovine, typical DNJ inhibitory activity (α-L-fucosidase (bovine))",α-D-mannosidase (Jack bean) [3] [%],"amyloglucosidase (A. niger), typical DNJ inhibitory activity [4]","β-D-glu almond, typical DNJ inhibitory activity (β-D-glucosidase (almond))",α-D-glucosidase (Yeast) (α-D-glucosidase (Yeast)) [%],α-D-galactosidase (Green coffee beans) [5] [%],Amyloglucosidase [6] [%],α-D-glucosidase (Bacillus) [7] [%],"α-D-man Jack bean, typical DNJ inhibitory activity [8]",IC50 [9] [µM],"inhibition of the iduronidase, in words ([9]; at 0.8 mM)"
"OC[C@H]1NC[C@H](O)[C@@H](O)[C@@H]1O [DNJ, 1 deoxynojirmycin]",NI,21,NI,27,NI,moderate,36,−3,32,100,weak,–,–
"O=C(O)CN1C[C@@H](O)[C@H](O)[C@H]1CO [DAB-N-ethanoic, DAB-N-ethanoic acid]",–,0,–,28,–,–,10.7,−5,−2,24.2,–,196,–
"O=C(O)CCN1C[C@H](O)[C@@H](O)[C@H](O)[C@H]1CO [DNJ-N-propanoic, DNJ-N-propanoic acid]",–,4,–,40,–,–,0.0,15,53,45.0,–,383,–
"O=C(O)CN1C[C@H](O)[C@@H](O)[C@H](O)[C@H]1CO [DNJ-N-ethanoic, DNJ-ethanoic acid]",–,0,–,38,–,–,2.5,−8,0,9.1,–,–,only weakly inhibits
